This is an account of results in US11225642B2, “Method for producing renal progenitor cells” (KYOTO UNIVERSITY, priority 2013, dated 2022).

The test system of assay [1] is OSR1-GFP & SIX2-tdTomato reporter human iPS cell line. As to the kind of experiment: SIX2-positive cell induction method 1, SIX2-tdTomato-positive cell rate by flow cytometer. Conditions: induction method 1; stage 3 medium with 5 ng/ml TGFβ1 and 0.5 μM Dorsomorphin, 15 to 22 days. The assay is classed as cell-based. Here is the method: The OSR1-GFP & SIX2-tdTomato reporter human iPS cell line obtained by the method in Example 1 was cultured at 37° C. in a 2-5% CO2 atmosphere to become confluent on 10-cm dishes containing a primate ES/iPS cell medium (ReproCELL) supplemented with 5 ng/ml bFGF (Wako) with the use of SNL cells (McMahon, A. P. and Bradley, A. (1990) Cell 62; 1073-1085) (the cells being treated with 15.5 μg/ml mitomycin (Kyowa Hakko Kirin Co., Ltd.) for 2 to 3 hours and seeded at a density of 3×10^5 cells/10-cm dish) as feeder cells. A CTK solution (2.5% Trypsin (Invitrogen), 1 mg/ml Collagenase IV (Invitrogen), 0.1 M CaCl2, 10 mL KnockOut SR (Invitrogen), and 29.5 mL H2O) was added to dissociate the cells. After removal of the feeder cells, the dissociated cells were suspended in a DMEM/F12 medium containing 1 μM CHIR99021 (Stemgent, 04-0004), 100 ng/ml Activin A (R&D Systems, 338-AC), 1% GlutaMAX (100×) (Invitrogen, 35050-061), 2% FBS (Hyclone), and 0.5% PenStrep (Invitrogen, 10565). Then, the cell suspensions were transferred to a low cell binding plate (LOW CELL BIND 6 WELL DISH (Nunc, 145383)) such that each well contained one-third to one-sixth of the cell suspension obtained from the 10-cm dish, followed by suspension culture at 37° C. in a 5% CO2 atmosphere for 2 days.
The cell mass obtained at stage 1 was transferred to a 24-well or 6-well dish coated with Matrigel (BD Matrigel Matrix Growth Factor Reduced (BD Biosciences, 356230) (the dish being coated with 0.2 mg/ml Matrigel in DMEM and treated at 37° C. for 30 minutes or at 4° C. overnight) or a 24-well or 6-well dish coated with Synthemax (Corning Synthemax II-SC Substrate (Corning, 3535XX1)) (the dish being coated with Synthemax diluted 40-fold with sterile water and treated at room temperature for 2 hours). The medium was exchanged with a DMEM/F12 medium containing 1 μM CHIR99021, 100 ng/ml BMP7 (Recombinant human BMP7 (R&D Systems, 3534-BP)), 0.1% 2-mercaptoethanol (1000×) (Invitrogen, 21985), 1% GlutaMAX (100×), 10% KnockOut SR (Invitrogen), 0.1 mM MEM NEAA (Invitrogen, 11140), and 0.5% PenStrep, followed by adhesion culture at 37° C. in a 5% CO2 atmosphere for 3 to 6 days. In the case of culture for 3 days or more, the medium was exchanged every 3 days with a medium having the same conditions.
The medium was removed from the cells obtained at stage 2. The cells were washed with PBS and then the medium was exchanged with a DMEM/F12 medium containing 5 ng/ml TGFβ1 (Peprotech, 100-21C), 0.5 μM Dorsomorphin (AMPK Inhibitor, Compound C (Merck, 171260)), 0.1% 2-mercaptoethanol (1000×), 1% GlutaMAX (100×), 10% KnockOut SR, 0.1 mM MEM NEAA, and 0.5% PenStrep, followed by suspension culture at 37° C. in a 5% CO2 atmosphere for 15 to 22 days. In this case, the medium was exchanged every 3 days with a medium having the same conditions.
At stage 3 of SIX2-positive cell induction method 1, Dorsomorphin was replaced with 100 ng/ml Noggin (Peprotech), 0.5 μM LDN193189 (Axon MedChem, 1509), or 0.5 μM DMH1 (Tocris, 4126) for differentiation induction in the aforementioned manner.
At stage 3 of SIX2-positive cell induction method 1, TGFβ1 was exchanged with 50 μM IDE1 (Tocris) or 50 μM IDE2 (Tocris) for differentiation induction in the aforementioned manner.
At stage 3 of SIX2-positive cell induction method 1, Dorsomorphin was replaced with 0.5 μM LDN193189, while TGFβ1 with 10 ng/ml TGFβ2 (Peprotech) or 10 ng/ml TGFβ3 (R&D), for differentiation induction in the aforementioned manner. As a result, the SIX2-positive cell rates were 8.6% and 9.3%, respectively (FIGS. 2G and 2H).
On the technique in general: Flow cytometry measures light scatter and fluorescence of single cells or particles in a stream.

Assay [2] shares this test system. The experiment in a line: SIX2-positive cell induction method 2, SIX2-tdTomato-positive cell rate by flow cytometer. It counts as cell-based. Conditions: stage 3 medium with 5 ng/ml TGFβ1 and 0.5 μM Dorsomorphin, 12 to 22 days. The method, then: The OSR1-GFP & SIX2-tdTomato reporter human iPS cell line obtained by the method in Example 1 was cultured in the manner described in stage 1 of induction method 1 to become confluent on 10-cm dishes using SNL cells as feeder cells. A CTK solution was added to dissociate the cells. After removal of the feeder cells, the dissociated cells were suspended in a DMEM/F12 medium containing 1 μM TTNPB (Sigma, T3757), 1 μM CHIR99021, 1% GlutaMAX (100×), 2% FBS, and 0.5% PenStrep. Then, the cell suspensions were transferred to a low cell binding plate (LOW CELL BIND 6 WELL DISH) such that each well contained one-third to one-sixth of the cell suspension obtained from the 10-cm dish, followed by suspension culture at 37° C. in a 5% CO2 atmosphere for 2 days.
The cell mass obtained at stage 1 was transferred to dishes coated with Matrigel or dishes coated with Synthemax (prepared in the manner described in stage 2 of induction method 1). The medium was exchanged with a DMEM/F12 medium containing 1 μM TTNPB, 0.1% 2-mercaptoethanol (1000×), 1% GlutaMAX (100×), 10% KnockOut SR, 0.1 mM MEM NEAA, and 0.5% PenStrep, followed by adhesion culture at 37° C. in a 5% CO2 atmosphere for 3 to 9 days. In this case, the medium was exchanged every 3 days with a medium having the same conditions.
The medium was removed from the cells obtained at stage 2. […]

Regarding `c1cc(-c2cnn3cc(-c4ccc(OCCN5CCCCC5)cc4)cnc23)ccn1` [Dorsomorphin, 6-[4-(2-piperidin-1-yl-ethoxy)phenyl]-3-pyridin-4-yl-pyrazolo[1,5-a]pyrimidine], the SIX2-tdTomato-positive cell rate in assay [1] was 21.5±2.0%; in assay [2], 20.6±5.3%.

Regarding “TGFβ1: TGFβ signaling activator protein (Peprotech)”, the SIX2-tdTomato-positive cell rate stood at 21.5±2.0% in assay [1] and 20.6±5.3% in assay [2].
